From patent US12448368B2, “Indole compounds as androgen receptor modulators” (NIDO BIOSCIENCES, INC., priority 2020, dated 2025) come the findings set out here.

The assay addresses T1, androgen receptor (AR) (Homo sapiens, UniProt P10275, T878A).
T1 construct: LNCaP cells expressing ARR2PB-FireflyLuc and CMV-RenillaLuc; endogenous in cells; host or cells: LNCaP cells carrying ARR2PB-FireflyLuc and CMV-RenillaLuc reporters
T1 sequence (P10275 1-920 T878A): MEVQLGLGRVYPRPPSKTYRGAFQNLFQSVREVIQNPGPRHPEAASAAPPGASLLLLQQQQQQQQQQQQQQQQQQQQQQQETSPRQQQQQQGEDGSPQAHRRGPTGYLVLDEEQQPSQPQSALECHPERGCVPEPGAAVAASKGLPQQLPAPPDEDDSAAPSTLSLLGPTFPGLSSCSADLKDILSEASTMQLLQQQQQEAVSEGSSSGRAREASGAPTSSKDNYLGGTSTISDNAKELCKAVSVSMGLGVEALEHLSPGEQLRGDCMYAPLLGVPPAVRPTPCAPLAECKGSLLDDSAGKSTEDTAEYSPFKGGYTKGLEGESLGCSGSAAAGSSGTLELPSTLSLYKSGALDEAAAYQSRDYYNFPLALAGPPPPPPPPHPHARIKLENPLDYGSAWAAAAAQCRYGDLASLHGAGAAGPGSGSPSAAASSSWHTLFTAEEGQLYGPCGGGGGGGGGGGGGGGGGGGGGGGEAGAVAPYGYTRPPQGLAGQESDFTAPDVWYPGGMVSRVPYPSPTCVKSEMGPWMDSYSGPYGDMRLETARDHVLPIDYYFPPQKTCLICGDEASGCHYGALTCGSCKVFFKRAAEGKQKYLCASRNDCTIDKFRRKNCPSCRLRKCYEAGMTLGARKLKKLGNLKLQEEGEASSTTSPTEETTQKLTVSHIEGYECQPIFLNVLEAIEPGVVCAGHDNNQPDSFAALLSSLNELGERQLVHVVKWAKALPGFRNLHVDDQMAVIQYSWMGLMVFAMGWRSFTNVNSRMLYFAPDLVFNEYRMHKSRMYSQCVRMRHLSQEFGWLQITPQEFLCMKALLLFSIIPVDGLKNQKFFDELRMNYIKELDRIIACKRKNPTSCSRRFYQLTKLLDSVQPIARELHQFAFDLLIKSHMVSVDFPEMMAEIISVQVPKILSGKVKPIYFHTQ
In words: AR reporter assay in LNCaP cells expressing ARR2PB-FireflyLuc and CMV-RenillaLuc, antagonist mode (% remaining activity, IC50). It is filed as cell-based. Conditions: 48 h at 37° C., class symbols A-D, read-out: IC50. Here is the method:
LNCaP cells expressing ARR2PB-FireflyLuc and CMV-RenillaLuc were treated with indicated concentrations of test compounds, enzalutamide (negative control), or DHT (positive control)+/−0.5 nM DHT for 48 h at 37° C. […] Remaining activity (antagonist mode) was calculated as % Remaining Activity=100×[(Readsample−LCave)/(HCave−LCave)] where HC is cells treated with 0.5 nM DHT only and LC is cells treated with 10 uM enzalutamide+0.5 nM DHT. Activation (agonist mode) was calculated as % Activation=100×[(ReadSample−LCave)/(HCave−LCave)] where HC is cells treated with 1 uM DHT and LC is cells treated with DMSO. Dose response curves and IC50 values were calculated using non-linear regression analysis in XLfit.
The designation “A” indicates an IC50 value of >10 μM, “B” indicates an IC50 value between 1 μM and 10 μM; “C” indicates an IC50 value between 100 nM and 1 μM; and “D” indicates an IC50 value of less than 100 nM.
As usually defined, the IC50 is the concentration that inhibits the measured activity by half. Turning to `CN1C(=O)c2ccc(-c3c[nH]c4c(C#N)cccc34)nc2C1(C)CO` (stereo not shown) [Compound 173], the 50% inhibitory concentration (IC50) is 1000 to 10000 nM.

In the case of `c1cnc2[nH]cc(-c3ccc(C4CC4)cn3)c2c1` [Compound 128], the IC50 lay within 100 to 1000 nM.

With `Cc1nc(-c2n[nH]c3cc(F)c(F)cc23)ccc1C#N` [Compound 103], the half-inhibitory concentration (IC50) is less than 100 nM.

On to `c1ccc2c(-c3cnc4c(c3)NCCC4)n[nH]c2c1` [Compound 57], for which the 50% inhibitory concentration (IC50) was more than 10000 nM.

On to `N#Cc1cccc2c(-c3ccc(N)c(OC(F)F)n3)c[nH]c12` [Compound 192], for which the IC50 was 100 to 1000 nM.

As to `CC(=O)N1CCC(Oc2ncc(-c3c[nH]c4c(C#N)cccc34)nc2Cl)C1` (stereo not shown) [Compound 259], the IC50 lay in the range of 100 to 1000 nM.

On to `Fc1ccc(-c2n[nH]c3ncccc23)cc1` [Compound 113], for which the half-inhibitory concentration (IC50) is 1000 to 10000 nM.

In the case of `COc1nc(-c2c[nH]c3c(C#N)cccc23)cnc1NC1CCNC1` (stereo not shown) [Compound 250], the 50% inhibitory concentration (IC50) lay in the range of 100 to 1000 nM.

In the case of `CC1(C)CCNc2cnc(-c3n[nH]c4cc(F)c(F)cc34)cc21` [Compound 60], the IC50 was more than 10000 nM.

`N#Cc1cccc2c(-c3ccc(N)c(Cl)n3)c[nH]c12` [Compound 137]: the IC50 is 100 to 1000 nM.

For `Cc1cncc(-c2c[nH]c3c(C#N)cccc23)n1` [Compound 175], the half-maximal inhibitory concentration (IC50) was in the range of 100 to 1000 nM.

With `Cc1nc(-c2c[nH]c3c(C#N)cccc23)cnc1O[C@@H]1CNC[C@@H]1F` [Compound 297], the half-inhibitory concentration (IC50) was 100 to 1000 nM.

In the case of `CN1CCN(c2ccnc(-c3n[nH]c4ccccc34)c2)CC1` [Compound 67], the concentration for half-maximal inhibition (IC50) is more than 10000 nM.

For `Cc1nc(-c2n[nH]c3c(Cl)cccc23)ccc1OC1CCNC1` (stereo not shown) [Compound 256], the half-inhibitory concentration (IC50) is 1000 to 10000 nM.

Regarding `Cc1cccc(-c2c[nH]c3c(C#N)cccc23)n1` [Compound 133], the IC50 fell in the range of 100 to 1000 nM.

For `N#Cc1cccc2c(-c3cnc(OC4CCNC4)c(OC(F)F)n3)c[nH]c12` (stereo not shown) [Compound 244], the 50% inhibitory concentration (IC50) is more than 10000 nM.

Consider `Cc1nc(-c2c[nH]c3c(C#N)cccc23)cnc1O[C@H]1CCN[C@@H]1C` [Compound 285], for which the concentration for half-maximal inhibition (IC50) fell in the range of 1000 to 10000 nM.

Turning to `N#Cc1cccc2c(-c3cnc(NC4CCNC4)c(OC(F)F)n3)c[nH]c12` (stereo not shown) [Compound 226], the IC50 fell in the range of 100 to 1000 nM.

As to `CN1CCN(c2cccc(-c3n[nH]c4ccccc34)n2)CC1` [Compound 68], the 50% inhibitory concentration (IC50) is more than 10000 nM.

On to `CNC(=O)c1ccc(-c2n[nH]c3cc(F)c(F)cc23)nc1C` [Compound 100], for which the IC50 was more than 10000 nM.

Consider `CC(=O)N1CCC(Oc2ncc(-c3c[nH]c4cccnc34)nc2C)C1` (stereo not shown) [Compound 311], for which the concentration for half-maximal inhibition (IC50) is more than 10000 nM.

In the case of `CC(=O)N(C)c1ccc(-c2n[nH]c3cc(F)c(F)cc23)nc1C` [Compound 97], the half-inhibitory concentration (IC50) is more than 10000 nM.

With `Cc1nc(-c2c[nH]c3c(C#N)cccc23)ccc1N(C)C` [Compound 148], the IC50 is less than 100 nM.

For `N#Cc1cccc2c(-c3ccc4ncccc4n3)nn(C3CCCCO3)c12` (stereo not shown) [Compound 85], the IC50 is more than 10000 nM.

Regarding `CC1(C)CCNc2ccc(-c3n[nH]c4cc(F)c(F)cc34)nc21` [Compound 50], the IC50 fell in the range of 100 to 1000 nM.

Take `CCOC(=O)c1coc(-c2c[nH]c3c(C)cccc23)n1` [Compound 123]: the concentration for half-maximal inhibition (IC50) was more than 10000 nM.

Take `N#Cc1cccc2c(-c3ccc(OC4CCNC4)c(C(F)(F)F)n3)c[nH]c12` (stereo not shown) [Compound 252]: the IC50 fell in the range of 1000 to 10000 nM.

As to `Cc1nc(-c2c[nH]c3c(C#N)cccc23)cnc1N` [Compound 149], the half-maximal inhibitory concentration (IC50) is 100 to 1000 nM.

For `c1ccc2c(-c3ccc4c(n3)CNCC4)n[nH]c2c1` [Compound 20], the concentration for half-maximal inhibition (IC50) is more than 10000 nM.

In the case of `Cc1nc(-c2c[nH]c3c(C#N)cccc23)cnc1OC1(C)CCNC1` (stereo not shown) [Compound 308], the IC50 fell in the range of 1000 to 10000 nM.

As to `c1cc2c(nc1-c1n[nH]c3c1COCC3)CCCN2` [Compound 83], the half-maximal inhibitory concentration (IC50) is more than 10000 nM.

For `Cc1nc(-c2c[nH]c3c(F)cccc23)cnc1OCC(C)(C)O` [Compound 332], the concentration for half-maximal inhibition (IC50) is 1000 to 10000 nM.

With `Cc1nc(-c2c[nH]c3c(C#N)cccc23)cnc1O[C@@H](C)[C@H](C)O` [Compound 334], the IC50 lay within 1000 to 10000 nM.

As to `COCC(=O)N1CCCc2nc(-c3n[nH]c4cc(F)c(F)cc34)ccc21` [Compound 37], the IC50 was more than 10000 nM.

For the compound `COc1nc(-c2c[nH]c3c(C#N)cccc23)cnc1NC1CCN(C(C)=O)C1` (stereo not shown) [Compound 265], the IC50 is less than 100 nM.

Consider `CC(=O)Nc1ccc(-c2n[nH]c3cc(F)c(F)cc23)nc1C` [Compound 96], for which the concentration for half-maximal inhibition (IC50) is more than 10000 nM.

Regarding `CC1CNc2ccc(-c3n[nH]c4cc(F)c(F)cc34)nc2O1` (stereo not shown) [Compound 70], the IC50 was more than 10000 nM.

Turning to `CC(=O)N1CCC(Oc2ncc(-c3c[nH]c4c(C#N)cccc34)nc2C)C1` (stereo not shown) [Compound 194], the IC50 was 100 to 1000 nM.

Turning to `c1ccc(-c2cc(-c3ccc4c(n3)CCCN4)n[nH]2)nc1` [Compound 84], the IC50 was more than 10000 nM.

As for `Cc1nc(-c2c[nH]c3c(C#N)cccc23)cnc1N(C)CC(C)(C)O` [Compound 326], the IC50 is 1000 to 10000 nM.

With `CC1NC(=O)c2ccc(-n3ncc4cc(F)c(F)cc43)nc21` (stereo not shown) [Compound 107], the IC50 is more than 10000 nM.

Turning to `Cc1nc(-c2coc3c(Cl)cccc23)cnc1OCC(C)(C)O` [Compound 337], the IC50 lay within 100 to 1000 nM.

Turning to `c1cnc2ccc(-c3n[nH]c4ccccc34)nc2c1` [Compound 5], the half-inhibitory concentration (IC50) was less than 100 nM.

Consider `CC1(C)NC(=O)c2ccc(-c3c[nH]c4c(C(F)(F)F)cccc34)nc21` [Compound 187], for which the 50% inhibitory concentration (IC50) was less than 100 nM.

Consider `Cc1nc(-c2c[nH]c3ncccc23)ccc1N` [Compound 135], for which the IC50 is 1000 to 10000 nM.

For `Cc1nc(-c2c[nH]c3c(C#N)cccc23)cnc1O[C@@H]1CN[C@H](C)C1` [Compound 331], the IC50 is more than 10000 nM.

For `CCN(CC(C)(C)O)c1ncc(-c2c[nH]c3c(C#N)cccc23)nc1C` [Compound 327], the half-maximal inhibitory concentration (IC50) was in the range of 1000 to 10000 nM.

In the case of `CN1C(=O)c2ccc(-c3c[nH]c4c(C#N)cccc34)nc2C1(C)C` [Compound 156], the 50% inhibitory concentration (IC50) fell in the range of 100 to 1000 nM.

On to `N#Cc1cccc2c(-c3ccc4ccc(F)cc4n3)c[nH]c12` [Compound 120], for which the half-inhibitory concentration (IC50) is less than 100 nM.

Regarding `Cc1cccc(-c2c[nH]c3ccc(C#N)cc23)n1` [Compound 162], the IC50 lay within 1000 to 10000 nM.

On to `Fc1cc2[nH]nc(-c3cnc4c(n3)CCCN4)c2cc1F` [Compound 58], for which the half-maximal inhibitory concentration (IC50) is more than 10000 nM.

For the compound `Fc1ccc(-c2c[nH]c3cccnc23)nc1` [Compound 201], the IC50 fell in the range of 1000 to 10000 nM.

Regarding `CC1NC(=O)c2ccc(-c3nn(C)c4cc(F)c(F)cc34)nc21` (stereo not shown) [Compound 105], the 50% inhibitory concentration (IC50) was more than 10000 nM.

In the case of `Fc1ccc(-c2c[nH]c3cnccc23)nc1` [Compound 200], the IC50 is more than 10000 nM.

As for `CC1CCNc2cnc(-c3n[nH]c4cc(F)c(F)cc34)cc21` (stereo not shown) [Compound 49], the IC50 fell in the range of 1000 to 10000 nM.

`N#Cc1cccc2c(-c3ccc(N)c(C4CC4)n3)c[nH]c12` [Compound 139]: the IC50 was less than 100 nM.

Take `Cc1nc(-c2c[nH]c3c(C#N)cc(F)cc23)ccc1F` [Compound 131]: the concentration for half-maximal inhibition (IC50) was less than 100 nM.

In the case of `CCc1nc(-c2c[nH]c3c(C#N)cccc23)cnc1OC1CCNC1` (stereo not shown) [Compound 305], the half-maximal inhibitory concentration (IC50) was more than 10000 nM.

Consider `Cc1nc(-c2c[nH]c3c(C#N)cccc23)cnc1OC1C2CNCC21` (stereo not shown) [Compound 224], for which the IC50 was 1000 to 10000 nM.

On to `CN1CCCc2nc(-c3n[nH]c4cc(F)c(F)cc34)ccc21` [Compound 24], for which the IC50 fell in the range of 1000 to 10000 nM.

Take `Cc1nc(-c2c[nH]c3cccnc23)ccc1N` [Compound 134]: the IC50 was more than 10000 nM.
